From patent US20160251625A1, “METHOD FOR SCALABLE SKELETAL MUSCLE LINEAGE SPECIFICATION AND CULTIVATION” (THE CURATORS OF THE UNIVERSITY OF MISSOURI, priority 2013, published 2016)

How the values were obtained:
piPSC-derived myotubes = assay: calcium transient activity (Fluo-4 AM) in piPSC-derived myotubes; assay type: cell-based, porcine; settings: d6 myotubes, 10 mM, field of view
Source text: To quantify contraction cycles, myotube cultures were stained with Fluo-4 AM calcium dye, washed, and image sequences were captured by confocal microscopy. Dynamic signaling events of an entire field of view (FOV) or single cells were traced and plotted over the imaging course. [s]=seconds.

O2KM cell line = assay: 5AC effects on MYF5 expression and terminal differentiation of O2KM; assay type: cell-based, porcine
Experimental: Therefore, a epigenetic modulator was used to enhance the expression of myogenic genes in cells otherwise non-permissive to myogenesis and enhance terminal differentiation of lineage committed myoctes to mature myofibers. […] This distinction may explained by the enhanced expression of the myogenic transcription factor MYF5 observed only in the 5AC-exposed O2KM prior to and following 48 hours of DOX withdrawal
(§1) 5AC exposure prior to, during, and following E2-mediated induction of ‘MyoDER’ was introduced to enable terminal-differentiation of O2KM from myocytes into refractive, filamentous myotubes. The murine C2C12 cell line was used as positive control to screen for optimal conditions for terminal differentiation by O2KM. […] 5AC, a small-molecule epigenetic modulator, was determined previously to enable skeletal muscle transcription in cell lines non-permissive to myogenesis. Moreover, 5AC exposure was further determined to enhance terminal differentiation by the C2C12 cell line.
N-2 and B-27 supplements were used exclusively as serum replacements. Cultures were differentiated for up to 6d following under 20% O2 following induction regimens (FIG. 20A). […] Contractile potential of terminally differentiating skeletal muscle myotubes was validated by (1) structural development of well-organized sarcomeres, as shown in FIG. 20G; (2) asynchronous spontaneous contraction, as shown in FIG. 21A; (3) contractile stimulation and synchronization by field stimulation, as shown in FIG. 21B; (4) caffeine-stimulated contraction, as shown in FIG. 21C; and (5) acetylcholine-stimulated contraction, as shown in FIG. 21D.
piPSC modification with an integrated MyoDER expression cassette. […] Arrows and boxes indicate promoter and gene sequences, respectively. […] MyoDER was detected with an antibody raised against a MyoD peptide. […] Endogenous MYOD1 (˜45 kD, expected) was not detected. […] Double Arrow: Partially resolved MYOG isoforms. FIGS. 19A and 19B. Determinants of MYF5 activation: Western blot analyses. […] In the absence of CHIR99021, the 17 kD cleaved caspase isoform was not observed in the KOSR supplemented differentiation milieu, as in contrast to observations in the N-2 and B-27 supplemented differentiation milieu (FIG. 17A, FIG. 19A). […] MYODER-modified piPSC were cultured 3 days in self-renewal or expansion milieu. […] TUBA is detected as an internal protein loading control.

undifferentiated O2KM = assay: 5AC tolerance of undifferentiated O2KM; assay type: cell-based, porcine
Experimental: as §1

murine C2C12 myoblast = assay: terminal differentiation of C2C12 myoblasts, scored by size and extent of myotube formation; assay type: cell-based; settings: low-mitogen differentiation cultures (2% horse serum/DMEM)
CTNNB1 = assay: Western blot of CTNNB1 level and phosphorylation in differentiating O2K; assay type: cell-based, porcine; settings: primordial differentiation
Source text: TUBA detected as an internal protein loading control. […] TUBA detection is shown as an internal protein loading control.

O2K cell line [1] = assay: cell death / survival of differentiating O2K (phase contrast, cell adhesion, CPP32 cleavage, Annexin V); assay type: cell-based, porcine; settings: SRM basal medium without hLIF, DOX, PD032591 and PD173074
Source text: (§2) 1. As CHIR99021 repressed cell death, supported differentiation toward paraxial mesoderm by the differentiating O2K cell line and enhanced terminal differentiation by the C2C12 cell line, precedent was established to retain the compound in all culture stages.
TUBA is detected an internal protein loading control.

O2K cell line [2] = assay: differentiation marker Western blot (PAX3, POU5F1, KLF4) in O2K; assay type: cell-based, porcine; settings: differentiating O2K, CHIR99021 supplemented basal medium
Source text: as §2
TUBA detected as an internal protein loading control. FIG. 13A indicates ratios of p-CTNNB1/CTNNB1 bands. FIG. 13B indicates ratios of CTNNB1/TUBA bands. […] TUBA detection is shown as an internal protein loading control.

Q: For `Cn1c(=O)c2c(ncn2C)n(C)c1=O` [caffeine], which calcium transient activation (piPSC-derived myotubes) is on record?
A: calcium transient activation

Q: Which “MYF5 expression after expansion culture” value (O2KM cell line; MyoDER-modified piPSC, 3 days, in the presence of DOX and CHIR99021) does the source give for `Nc1ncn([C@@H]2O[C@H](CO)[C@@H](O)[C@H]2O)c(=O)n1` [5AC, 5-Aza-Cytidine] here?
A: supported detectable MYF5 expression levels

Q: And the MYF5 expression (O2KM cell line; O2KM derived myocytes cultured in the presence of 5AC)?
A: MYF5 expression was enhanced

Q: What about the “myotube morphology in terminal differentiation” value (O2KM cell line; O2KM exposed to 5AC during expansion and induction regimens) of the same compound?
A: formed refractive, anisotropic myotubes

Q: What about the “activation of endogenous MYF5 expression, dependence on CHIR99021” value (O2KM cell line; unmodified piPSC, 2d differentiation milieu with KOSR, no 3i, DOX, hLIF, E2) of the same compound?
A: dependent upon simultaneous CHIR99021 exposure

Q: What about the highest dose tolerated (undifferentiated O2KM) of the same compound?
A: 250 nM

Q: Which results are given for `Cc1c[nH]c(-c2cnc(NCCNc3ccc(C#N)cn3)nc2-c2ccc(Cl)cc2Cl)n1` [CHIR99021]?
A: terminal differentiation of C2C12 into skeletal myotubes (murine C2C12 myoblast): enhanced terminal differentiation into skeletal myotubes; CTNNB1 stabilization and phosphorylation status (CTNNB1): stabilizes and modulates the phosphorylation status of the GSK3β substrate, CTNNB1; cell survival during differentiation (O2K cell line [1]): supported both cell survival during differentiation; paraxial mesoderm lineage specification (PAX3 expression, loss of POU5F1 and KLF4) (O2K cell line [2]): supported pre-myogenic paraxial mesoderm lineage specification of differentiating O2K
